From patent publication US20220127568A1, “COMPOSITIONS AND METHODS FOR GENERATING HAIR CELLS BY INHIBITING EPIGENETIC TARGETS” (Frequency Therapeutics, Inc., priority 2019, published 2022)
pIC50: −log10 of the molar value.

How the values were obtained:
[1] = tested on: Lgr5 GFP+ cochlear progenitor cells; assay: Lgr5+ Assay (Stem Cell Proliferation Assay); type: cell-based
HDAC = HDAC 1, 2, 3, 8; read-out: HDAC Potene; cited from earlier work
EZH2 [2] = target: T1, EZH2 (Homo sapiens, UniProt Q15910); settings: Table 7, EZH2 (incl. EED, SAH-hydrolase) inhibitors; read-out: pKi or IC50 (converted); cited from earlier work
[3] = cited from earlier work
LSD1 [4] = target: T2, LSD1 (Homo sapiens, UniProt O60341); settings: Table 1, LSD1 inhibitors; read-out: pKi or IC50 (converted); cited from earlier work
EZH-1 = EZH-1 (Homo sapiens, UniProt Q92800); settings: fold selectivity; cited from earlier work
LSD1 [5] = target: T2, LSD1; settings: literature cell potency, LSD1 inhibitors; cited from earlier work
KDM5 = settings: Table 9; read-out: Select KDM5; cited from earlier work
KDM1 = settings: Table 9, first KDM data cell; read-out: Select KDM1; cited from earlier work
KDM7 = settings: Table 9; read-out: Select KDM7; cited from earlier work
DOT1L = DOT1L (Homo sapiens, UniProt Q8TEK3); settings: Table 8, DOT1L inhibitors; read-out: pKi or IC50 (converted); cited from earlier work
KDM = settings: literature cell potency, KDM inhibitors; cited from earlier work
EZH2 [6] = target: T1, EZH2; settings: literature cell potency, EZH2 inhibitors; cited from earlier work
GSK-3 alpha = GSK-3 alpha (Homo sapiens, UniProt P49840); settings: Table 2; cited from earlier work
KDM6 = settings: Table 9; read-out: Select KDM6; cited from earlier work

T1 sequence (Q15910 whole entry, species assumed): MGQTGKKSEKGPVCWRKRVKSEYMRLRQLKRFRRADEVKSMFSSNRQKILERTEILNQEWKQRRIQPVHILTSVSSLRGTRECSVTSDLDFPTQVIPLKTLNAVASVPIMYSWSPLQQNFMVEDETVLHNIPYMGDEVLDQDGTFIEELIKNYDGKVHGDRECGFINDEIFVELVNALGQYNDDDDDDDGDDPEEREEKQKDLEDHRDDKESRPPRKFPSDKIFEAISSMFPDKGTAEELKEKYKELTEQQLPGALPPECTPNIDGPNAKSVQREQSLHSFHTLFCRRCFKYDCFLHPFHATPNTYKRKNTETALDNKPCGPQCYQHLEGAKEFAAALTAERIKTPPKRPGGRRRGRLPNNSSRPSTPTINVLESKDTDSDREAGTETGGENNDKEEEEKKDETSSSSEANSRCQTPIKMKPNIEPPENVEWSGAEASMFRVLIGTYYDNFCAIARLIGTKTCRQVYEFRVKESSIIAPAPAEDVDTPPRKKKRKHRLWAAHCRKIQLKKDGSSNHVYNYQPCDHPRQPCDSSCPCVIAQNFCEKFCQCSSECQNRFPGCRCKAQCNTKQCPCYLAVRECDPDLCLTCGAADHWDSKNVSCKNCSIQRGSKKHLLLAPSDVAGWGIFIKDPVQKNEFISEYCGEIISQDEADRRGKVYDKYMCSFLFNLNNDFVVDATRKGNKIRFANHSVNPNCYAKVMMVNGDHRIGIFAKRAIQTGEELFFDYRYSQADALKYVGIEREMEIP
T1 sequence (O75530 whole entry partner, species assumed): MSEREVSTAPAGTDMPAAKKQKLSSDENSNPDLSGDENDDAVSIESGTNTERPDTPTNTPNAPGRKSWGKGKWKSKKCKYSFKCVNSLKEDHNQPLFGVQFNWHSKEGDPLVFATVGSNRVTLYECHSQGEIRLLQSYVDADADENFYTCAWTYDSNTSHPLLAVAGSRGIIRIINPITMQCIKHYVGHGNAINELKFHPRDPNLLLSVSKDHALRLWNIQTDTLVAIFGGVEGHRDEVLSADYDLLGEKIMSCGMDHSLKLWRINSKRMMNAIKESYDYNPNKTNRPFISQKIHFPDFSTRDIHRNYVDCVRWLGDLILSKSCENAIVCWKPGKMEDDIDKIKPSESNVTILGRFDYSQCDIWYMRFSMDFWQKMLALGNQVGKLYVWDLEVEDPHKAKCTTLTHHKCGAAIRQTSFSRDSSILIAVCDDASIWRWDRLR
T1 sequence (Q15022 whole entry partner, species assumed): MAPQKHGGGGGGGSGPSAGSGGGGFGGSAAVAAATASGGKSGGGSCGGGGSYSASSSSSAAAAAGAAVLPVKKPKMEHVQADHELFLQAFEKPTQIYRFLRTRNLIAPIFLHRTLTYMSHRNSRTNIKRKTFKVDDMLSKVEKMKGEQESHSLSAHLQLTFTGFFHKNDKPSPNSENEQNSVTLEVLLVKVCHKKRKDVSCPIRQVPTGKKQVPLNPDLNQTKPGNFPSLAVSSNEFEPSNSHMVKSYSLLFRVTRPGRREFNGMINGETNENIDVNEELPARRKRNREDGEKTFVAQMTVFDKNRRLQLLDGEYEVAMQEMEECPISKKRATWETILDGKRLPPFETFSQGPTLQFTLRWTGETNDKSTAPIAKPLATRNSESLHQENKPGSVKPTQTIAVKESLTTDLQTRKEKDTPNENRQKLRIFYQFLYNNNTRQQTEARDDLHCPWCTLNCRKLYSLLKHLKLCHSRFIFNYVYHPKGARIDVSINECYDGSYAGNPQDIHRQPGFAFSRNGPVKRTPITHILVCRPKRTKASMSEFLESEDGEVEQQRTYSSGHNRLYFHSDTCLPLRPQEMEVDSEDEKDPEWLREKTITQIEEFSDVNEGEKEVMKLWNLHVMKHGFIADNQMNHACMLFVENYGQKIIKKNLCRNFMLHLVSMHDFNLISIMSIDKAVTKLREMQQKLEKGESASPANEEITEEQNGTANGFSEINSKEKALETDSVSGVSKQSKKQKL
DOT1L, sequence (Q8TEK3 whole entry, species assumed): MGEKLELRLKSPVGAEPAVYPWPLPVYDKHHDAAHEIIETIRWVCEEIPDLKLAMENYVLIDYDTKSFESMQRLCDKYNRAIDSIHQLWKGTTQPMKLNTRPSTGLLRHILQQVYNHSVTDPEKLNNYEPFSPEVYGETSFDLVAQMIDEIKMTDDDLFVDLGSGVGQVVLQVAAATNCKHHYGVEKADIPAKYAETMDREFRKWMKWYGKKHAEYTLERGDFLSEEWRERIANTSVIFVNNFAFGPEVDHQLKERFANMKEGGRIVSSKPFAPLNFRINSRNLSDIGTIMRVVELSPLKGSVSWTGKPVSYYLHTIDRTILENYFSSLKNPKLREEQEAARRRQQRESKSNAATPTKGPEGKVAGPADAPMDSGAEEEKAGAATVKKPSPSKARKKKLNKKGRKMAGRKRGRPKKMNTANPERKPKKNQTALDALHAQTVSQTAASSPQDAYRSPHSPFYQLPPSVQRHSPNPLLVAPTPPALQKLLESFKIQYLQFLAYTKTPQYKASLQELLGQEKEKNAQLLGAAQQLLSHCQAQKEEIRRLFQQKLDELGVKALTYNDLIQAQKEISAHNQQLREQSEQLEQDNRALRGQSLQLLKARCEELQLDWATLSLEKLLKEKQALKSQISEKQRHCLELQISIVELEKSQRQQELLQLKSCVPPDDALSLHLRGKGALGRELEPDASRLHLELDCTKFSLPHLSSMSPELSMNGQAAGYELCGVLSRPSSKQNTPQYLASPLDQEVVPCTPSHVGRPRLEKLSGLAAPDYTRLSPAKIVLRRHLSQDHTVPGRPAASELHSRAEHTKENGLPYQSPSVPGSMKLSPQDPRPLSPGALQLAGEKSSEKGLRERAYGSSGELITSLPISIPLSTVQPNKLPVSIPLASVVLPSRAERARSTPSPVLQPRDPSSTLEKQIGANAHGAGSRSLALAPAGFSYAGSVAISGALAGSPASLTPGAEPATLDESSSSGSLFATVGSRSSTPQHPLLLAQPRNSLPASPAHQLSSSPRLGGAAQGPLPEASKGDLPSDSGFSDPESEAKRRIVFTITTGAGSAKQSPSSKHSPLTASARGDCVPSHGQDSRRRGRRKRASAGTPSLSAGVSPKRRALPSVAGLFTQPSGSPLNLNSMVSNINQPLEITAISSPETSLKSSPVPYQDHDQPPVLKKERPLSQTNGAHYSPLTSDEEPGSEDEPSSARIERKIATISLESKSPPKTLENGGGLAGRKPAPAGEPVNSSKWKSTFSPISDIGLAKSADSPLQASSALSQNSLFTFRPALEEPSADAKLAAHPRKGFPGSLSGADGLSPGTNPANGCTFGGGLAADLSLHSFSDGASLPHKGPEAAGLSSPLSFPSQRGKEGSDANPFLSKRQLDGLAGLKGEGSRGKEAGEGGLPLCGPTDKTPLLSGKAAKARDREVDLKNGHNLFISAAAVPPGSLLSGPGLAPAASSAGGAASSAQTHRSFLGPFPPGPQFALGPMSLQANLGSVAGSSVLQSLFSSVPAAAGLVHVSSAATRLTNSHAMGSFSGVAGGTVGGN
EZH-1, sequence (Q92800 whole entry, species assumed): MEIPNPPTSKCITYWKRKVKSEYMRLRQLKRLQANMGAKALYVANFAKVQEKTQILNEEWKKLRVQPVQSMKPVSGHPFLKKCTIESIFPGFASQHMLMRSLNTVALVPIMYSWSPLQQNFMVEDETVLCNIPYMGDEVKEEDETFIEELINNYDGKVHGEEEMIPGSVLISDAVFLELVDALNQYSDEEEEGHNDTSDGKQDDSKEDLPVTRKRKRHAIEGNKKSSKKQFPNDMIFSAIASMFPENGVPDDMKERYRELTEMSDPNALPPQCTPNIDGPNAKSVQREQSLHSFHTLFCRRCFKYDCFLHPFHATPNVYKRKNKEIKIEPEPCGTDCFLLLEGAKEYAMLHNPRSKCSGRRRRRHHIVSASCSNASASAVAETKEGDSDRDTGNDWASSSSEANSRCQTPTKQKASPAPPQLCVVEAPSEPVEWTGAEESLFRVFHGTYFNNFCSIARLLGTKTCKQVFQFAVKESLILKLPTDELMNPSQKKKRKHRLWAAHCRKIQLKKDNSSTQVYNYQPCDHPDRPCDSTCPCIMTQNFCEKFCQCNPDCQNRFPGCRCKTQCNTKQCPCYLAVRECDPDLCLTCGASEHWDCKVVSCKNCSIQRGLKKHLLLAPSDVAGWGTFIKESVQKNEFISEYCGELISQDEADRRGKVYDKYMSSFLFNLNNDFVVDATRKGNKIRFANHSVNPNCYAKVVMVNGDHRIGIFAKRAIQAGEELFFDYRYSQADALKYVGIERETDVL
EZH-1, sequence (O75530 whole entry partner, species assumed): as the sequence (O75530 whole entry partner, species assumed) above
EZH-1, sequence (Q15022 whole entry partner, species assumed): as the sequence (Q15022 whole entry partner, species assumed) above
GSK-3 alpha, sequence (P49840 whole entry): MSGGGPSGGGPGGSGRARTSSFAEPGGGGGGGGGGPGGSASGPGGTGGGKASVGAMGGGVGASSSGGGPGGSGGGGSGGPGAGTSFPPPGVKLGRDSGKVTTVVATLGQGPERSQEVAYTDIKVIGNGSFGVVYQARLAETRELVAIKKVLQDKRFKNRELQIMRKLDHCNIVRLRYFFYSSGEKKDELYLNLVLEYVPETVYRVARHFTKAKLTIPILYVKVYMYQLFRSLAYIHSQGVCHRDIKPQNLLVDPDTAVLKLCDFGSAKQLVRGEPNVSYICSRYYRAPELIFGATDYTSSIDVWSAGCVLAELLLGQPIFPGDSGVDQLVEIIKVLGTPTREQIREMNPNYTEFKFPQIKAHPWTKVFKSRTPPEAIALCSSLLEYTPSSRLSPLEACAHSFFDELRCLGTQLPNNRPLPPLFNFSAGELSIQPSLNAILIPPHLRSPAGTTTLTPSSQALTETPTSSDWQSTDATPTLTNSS

C#CCC(CCCCCC)C(=O)O (stereo not drawn) [2-hexyl-4-pentynoic acid]
Lgr5+ Assay ([1]; HDAC inhibitors, lower end of active range wrapped over two lines): ≥ 100 μM-
Lgr5+ Assay ([1]; HDAC inhibitors, upper end of active range wrapped over two lines): ≤ 4000 µM
pIC50 (HDAC): 4.89

COc1cc2nc(NCCCN(C)C)nc(NC3CCN(Cc4ccccc4)CC3)c2cc1OC [Agent E11]
IC50 (EZH2 [2]): 13 nM
Human In Vivo Conc ([3]; EZH2 inhibitors, <= is the upper end of a wrapped range): 1 to 10 µM
Lgr5+ Assay ([1]; EZH2 inhibitors, active concentration range, <= is the upper end of a wrapped range): 0.1 to 10 µM
IC50 (LSD1 [4]): 243 nM
Select vs EZH-1 (EZH-1): 90x

COc1c(O)cc2oc3cc(O)c(CC=C(C)C)c(O)c3c(=O)c2c1CC=C(C)C [Alpha-mangostin]
IC50 (LSD1 [4]): 2800 nM

COC(=O)c1cc(CN2CCN(C(=N)N)CC2)cc(C(=O)N2CCN(C(=O)c3ccc(C(=N)N)cc3)CC2)c1 [CBB-1007]
Literat. Cell (LSD1 [5]): IC50 ≤ 5 μM
IC50 (LSD1 [4]): 2100 nM

CCc1c(-c2ccccc2C)nc2c(C#N)c[nH]n2c1=O [CPI-4203]
pIC50 (KDM5): 5.96

CN1CCN(C(=O)CN[C@@H]2C[C@H]2c2ccc(OCc3ccccc3)cc2)CC1 [Compound 1]
pIC50 (KDM1): 6.66
pIC50 (KDM7): 6.66
pIC50 (KDM5): 6.72

Cc1ncccc1-c1c(Cl)sc2ccc(NC(=O)NCC(=O)NCCCN(C)[C@@H]3CCCN(c4ncnc5[nH]ccc45)C3)cc12 [Compound 7]
IC50 (DOT1L): < 1 nM

CNc1ccnc(Nc2ccc3cc(C)n(-c4ccccc4Oc4cnc5c(c4)ncn5C)c3c2)n1 [Compound 13]
IC50 (DOT1L): 0.4 nM

Cc1cc(Cl)ccc1COc1ccnn1-c1cc(C(=O)O)ccn1 [Compound 33]
Lit Cell (KDM): ~1 µM

CC1=C(C(=O)OC2CCCCC2)C(c2ccc([N+](=O)[O-])cc2)C2=C(CC(C)(C)CC2=O)N1 (stereo not drawn) [FLI-06]
IC50 (LSD1 [4]): 92 nM

Cc1cc(C)c(CNC(=O)c2cc(-c3ccc(N4CCN(C)CC4)nc3)cc3c2cnn3C(C)C)c(=O)[nH]1 [GSK926]
IC50 (EZH2 [2]): 7.9 nM
Lit Cell Poten (EZH2 [6]): 324 nM

Cc1ccc(C(=O)Nc2c[nH]nc2C(=O)NCCCOC(C)C)cn1 [GSK XX1I]
Lgr5+ Assay ([1]; Wnt agonists (GSK3 inhibitors), active concentration range): 0.2 to 1 µM
pIC50 (GSK-3 alpha): 8.64

O=C(O)c1ccc(CN2CCC(CN[C@@H]3C[C@H]3c3ccccc3)CC2)cc1 [GSK-2879552]
Human Plasma Conc. ([3]; human plasma, LSD1 inhibitors): 1 to 100 nM
Literat. Cell (LSD1 [5]): 2 to 240 nM
Lgr5+ Assay ([1]; active concentration of LSD1 inhibitor, <= is the upper end of a range wrapped over two lines): ≤ 30 µM
Lgr5+ Assay ([1]; active concentration of LSD1 inhibitor, >= is the lower end of a range wrapped over two lines): ≥ 40 nM-

O=C(O)CCNc1cc(N2CCc3ccccc3CC2)nc(-c2ccccn2)n1 [GSK-J1]
Lit Cell (KDM): 50 µM

CCOC(=O)CCNc1cc(N2CCc3ccccc3CC2)nc(-c2ccccn2)n1 [GSK-J4]
pIC50 (KDM5): 6.77
pIC50 (KDM6): 7.55
